Source: ChEMBL document CHEMBL4507319 (2021)

Legend:
[1] = target: T1, Activin receptor type-1 (Homo sapiens) (UniProt Q04771); experiment: ALK2(h) Eurofins kinase panel; details: Compound concentration 1.0 uM
T1 sequence (whole entry): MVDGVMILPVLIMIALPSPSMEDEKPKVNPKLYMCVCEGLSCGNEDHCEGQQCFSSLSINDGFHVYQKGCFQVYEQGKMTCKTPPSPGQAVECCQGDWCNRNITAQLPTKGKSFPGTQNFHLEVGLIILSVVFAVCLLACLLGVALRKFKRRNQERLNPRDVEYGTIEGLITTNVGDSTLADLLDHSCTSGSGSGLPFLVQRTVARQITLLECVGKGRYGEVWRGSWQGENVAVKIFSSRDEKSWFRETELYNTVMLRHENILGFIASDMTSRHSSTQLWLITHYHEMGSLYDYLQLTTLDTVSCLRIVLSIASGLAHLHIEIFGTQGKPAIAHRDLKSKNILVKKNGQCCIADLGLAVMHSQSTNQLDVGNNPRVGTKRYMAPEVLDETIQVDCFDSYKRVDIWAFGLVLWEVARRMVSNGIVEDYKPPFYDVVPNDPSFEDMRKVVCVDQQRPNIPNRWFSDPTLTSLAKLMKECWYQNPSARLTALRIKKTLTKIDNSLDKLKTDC

[2] = target: Tyrosine-protein kinase Blk (Homo sapiens) (UniProt P51451); experiment: Blk(h) Eurofins kinase panel; details: Compound concentration 1.0 uM
[3] = target: Tyrosine-protein kinase BTK (Homo sapiens) (UniProt Q06187); experiment: BTK(h) Eurofins kinase panel; details: Compound concentration 1.0 uM
[4] = target: RAF proto-oncogene serine/threonine-protein kinase (Homo sapiens) (UniProt P04049); experiment: c-RAF(h) Eurofins kinase panel; details: Compound concentration 1.0 uM
Chain of RAF proto-oncogene serine/threonine-protein kinase (Homo sapiens) (P04049 whole entry): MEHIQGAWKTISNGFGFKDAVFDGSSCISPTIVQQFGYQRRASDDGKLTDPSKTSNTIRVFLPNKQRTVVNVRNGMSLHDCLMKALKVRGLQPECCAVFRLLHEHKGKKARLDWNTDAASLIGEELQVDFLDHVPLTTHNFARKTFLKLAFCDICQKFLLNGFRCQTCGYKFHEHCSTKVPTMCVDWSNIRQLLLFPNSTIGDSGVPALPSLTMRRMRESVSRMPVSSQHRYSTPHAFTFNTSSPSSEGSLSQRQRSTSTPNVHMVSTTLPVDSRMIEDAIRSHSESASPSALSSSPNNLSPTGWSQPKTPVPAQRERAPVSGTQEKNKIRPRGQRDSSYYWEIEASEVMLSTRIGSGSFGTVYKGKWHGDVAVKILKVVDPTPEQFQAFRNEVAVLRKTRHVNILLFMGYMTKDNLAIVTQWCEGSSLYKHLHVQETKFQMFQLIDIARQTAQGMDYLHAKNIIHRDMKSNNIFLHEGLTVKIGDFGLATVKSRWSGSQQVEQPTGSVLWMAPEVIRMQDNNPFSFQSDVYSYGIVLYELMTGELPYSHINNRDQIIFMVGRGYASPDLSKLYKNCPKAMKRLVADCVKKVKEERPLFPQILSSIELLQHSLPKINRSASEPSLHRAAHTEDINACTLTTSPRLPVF

[5] = target: T2, Serine/threonine-protein kinase DCLK3 (Homo sapiens) (UniProt Q9C098); experiment: DCAMKL3(h) Eurofins kinase panel; details: Compound concentration 1.0 uM
T2 sequence (whole entry): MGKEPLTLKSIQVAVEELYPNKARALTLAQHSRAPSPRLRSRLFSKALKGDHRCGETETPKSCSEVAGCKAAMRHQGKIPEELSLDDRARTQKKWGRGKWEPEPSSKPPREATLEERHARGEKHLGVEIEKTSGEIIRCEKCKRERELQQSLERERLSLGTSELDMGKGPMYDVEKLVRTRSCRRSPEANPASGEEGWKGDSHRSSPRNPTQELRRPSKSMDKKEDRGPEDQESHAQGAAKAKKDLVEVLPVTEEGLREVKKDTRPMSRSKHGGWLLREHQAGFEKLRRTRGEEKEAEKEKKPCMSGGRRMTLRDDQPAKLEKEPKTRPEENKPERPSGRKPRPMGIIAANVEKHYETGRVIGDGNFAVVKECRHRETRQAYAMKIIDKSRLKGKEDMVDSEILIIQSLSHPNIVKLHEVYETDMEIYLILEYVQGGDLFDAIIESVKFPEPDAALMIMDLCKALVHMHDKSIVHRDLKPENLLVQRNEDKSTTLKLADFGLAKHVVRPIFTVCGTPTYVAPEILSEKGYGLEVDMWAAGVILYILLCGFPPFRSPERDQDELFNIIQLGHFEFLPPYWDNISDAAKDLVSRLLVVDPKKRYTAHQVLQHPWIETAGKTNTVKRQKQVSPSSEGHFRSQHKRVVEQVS

[6] = target: Vascular endothelial growth factor receptor 3 (Homo sapiens) (UniProt P35916); experiment: Flt4(h) Eurofins kinase panel; details: Compound concentration 1.0 uM
Chain of Vascular endothelial growth factor receptor 3 (Homo sapiens) (P35916 whole entry): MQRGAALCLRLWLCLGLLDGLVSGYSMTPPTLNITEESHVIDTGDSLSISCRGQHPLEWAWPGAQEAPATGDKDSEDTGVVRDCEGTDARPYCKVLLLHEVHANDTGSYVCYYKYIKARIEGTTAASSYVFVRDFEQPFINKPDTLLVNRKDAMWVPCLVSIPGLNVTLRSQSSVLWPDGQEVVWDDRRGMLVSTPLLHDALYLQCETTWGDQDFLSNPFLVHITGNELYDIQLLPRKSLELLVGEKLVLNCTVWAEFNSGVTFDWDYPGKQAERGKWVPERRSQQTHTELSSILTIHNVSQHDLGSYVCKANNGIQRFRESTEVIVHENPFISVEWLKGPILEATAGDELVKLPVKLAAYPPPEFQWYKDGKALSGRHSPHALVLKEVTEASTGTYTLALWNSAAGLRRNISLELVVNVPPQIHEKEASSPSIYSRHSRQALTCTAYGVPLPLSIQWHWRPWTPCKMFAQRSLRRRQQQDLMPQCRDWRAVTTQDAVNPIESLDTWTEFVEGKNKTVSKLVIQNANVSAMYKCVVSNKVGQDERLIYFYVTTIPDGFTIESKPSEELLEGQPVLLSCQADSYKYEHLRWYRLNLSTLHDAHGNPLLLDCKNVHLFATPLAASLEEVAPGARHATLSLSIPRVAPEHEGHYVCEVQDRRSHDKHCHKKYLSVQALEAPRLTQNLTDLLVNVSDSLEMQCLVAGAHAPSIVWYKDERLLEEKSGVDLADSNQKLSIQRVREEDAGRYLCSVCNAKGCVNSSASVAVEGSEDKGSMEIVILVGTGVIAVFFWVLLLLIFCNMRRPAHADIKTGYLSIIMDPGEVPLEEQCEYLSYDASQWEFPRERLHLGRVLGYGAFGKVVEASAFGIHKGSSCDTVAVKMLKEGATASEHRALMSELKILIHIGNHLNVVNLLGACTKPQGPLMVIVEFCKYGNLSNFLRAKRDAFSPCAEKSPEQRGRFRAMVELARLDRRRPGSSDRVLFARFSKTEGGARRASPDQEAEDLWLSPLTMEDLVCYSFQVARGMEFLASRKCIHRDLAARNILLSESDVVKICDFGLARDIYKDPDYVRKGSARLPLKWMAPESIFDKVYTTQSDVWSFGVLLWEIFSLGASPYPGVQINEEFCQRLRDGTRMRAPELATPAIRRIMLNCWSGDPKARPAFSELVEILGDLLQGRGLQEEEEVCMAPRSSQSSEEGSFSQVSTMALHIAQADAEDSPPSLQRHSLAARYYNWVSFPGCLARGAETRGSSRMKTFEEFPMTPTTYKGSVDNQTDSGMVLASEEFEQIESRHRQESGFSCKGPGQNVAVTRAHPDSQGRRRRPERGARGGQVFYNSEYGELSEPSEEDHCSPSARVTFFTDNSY

[7] = target: T3, Serine/threonine-protein kinase ICK (Homo sapiens) (UniProt Q9UPZ9); experiment: ICK(h) Eurofins kinase panel; details: Compound concentration 1.0 uM
T3 sequence (whole entry): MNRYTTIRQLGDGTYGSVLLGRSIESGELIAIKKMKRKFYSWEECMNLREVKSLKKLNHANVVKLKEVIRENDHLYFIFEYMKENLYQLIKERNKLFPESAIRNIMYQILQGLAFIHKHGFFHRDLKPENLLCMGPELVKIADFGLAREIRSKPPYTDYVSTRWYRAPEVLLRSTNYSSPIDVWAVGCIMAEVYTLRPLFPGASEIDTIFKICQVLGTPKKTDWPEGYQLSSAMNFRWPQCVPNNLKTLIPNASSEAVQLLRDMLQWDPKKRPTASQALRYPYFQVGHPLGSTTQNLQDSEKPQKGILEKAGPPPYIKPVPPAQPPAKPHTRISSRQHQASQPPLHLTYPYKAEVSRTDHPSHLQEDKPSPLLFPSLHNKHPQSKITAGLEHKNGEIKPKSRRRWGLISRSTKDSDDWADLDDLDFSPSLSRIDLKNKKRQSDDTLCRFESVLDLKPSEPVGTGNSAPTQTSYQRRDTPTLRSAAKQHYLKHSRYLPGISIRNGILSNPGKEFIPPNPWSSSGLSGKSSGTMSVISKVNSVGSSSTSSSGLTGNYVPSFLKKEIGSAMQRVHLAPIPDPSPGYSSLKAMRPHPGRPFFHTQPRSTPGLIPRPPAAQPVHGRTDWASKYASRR

[8] = target: Insulin-like growth factor 1 receptor (Homo sapiens) (UniProt P08069); experiment: IGF-1R(h), activated Eurofins kinase panel; details: Compound concentration 1.0 uM
Chain of Insulin-like growth factor 1 receptor (Homo sapiens) (P08069 31-736 limits assumed): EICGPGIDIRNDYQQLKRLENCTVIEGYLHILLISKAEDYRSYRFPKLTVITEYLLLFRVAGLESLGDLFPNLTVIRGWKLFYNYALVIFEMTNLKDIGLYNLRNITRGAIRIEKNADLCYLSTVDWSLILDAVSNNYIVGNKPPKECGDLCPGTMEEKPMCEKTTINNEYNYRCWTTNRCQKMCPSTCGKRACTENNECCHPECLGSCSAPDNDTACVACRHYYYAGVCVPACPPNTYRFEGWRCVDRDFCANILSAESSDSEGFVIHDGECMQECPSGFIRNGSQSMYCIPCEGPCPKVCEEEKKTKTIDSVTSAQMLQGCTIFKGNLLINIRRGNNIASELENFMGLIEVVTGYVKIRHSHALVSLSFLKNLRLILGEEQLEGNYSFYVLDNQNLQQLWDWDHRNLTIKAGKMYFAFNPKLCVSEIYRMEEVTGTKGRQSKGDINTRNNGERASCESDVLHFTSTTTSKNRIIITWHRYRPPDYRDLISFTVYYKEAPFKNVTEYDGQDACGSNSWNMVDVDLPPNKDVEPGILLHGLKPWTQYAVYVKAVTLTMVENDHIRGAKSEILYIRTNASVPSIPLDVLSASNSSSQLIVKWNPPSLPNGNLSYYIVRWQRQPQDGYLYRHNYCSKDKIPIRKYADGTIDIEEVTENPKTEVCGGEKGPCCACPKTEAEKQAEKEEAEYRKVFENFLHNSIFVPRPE
Chain of Insulin-like growth factor 1 receptor (Homo sapiens) (P08069 741-1367 limits assumed): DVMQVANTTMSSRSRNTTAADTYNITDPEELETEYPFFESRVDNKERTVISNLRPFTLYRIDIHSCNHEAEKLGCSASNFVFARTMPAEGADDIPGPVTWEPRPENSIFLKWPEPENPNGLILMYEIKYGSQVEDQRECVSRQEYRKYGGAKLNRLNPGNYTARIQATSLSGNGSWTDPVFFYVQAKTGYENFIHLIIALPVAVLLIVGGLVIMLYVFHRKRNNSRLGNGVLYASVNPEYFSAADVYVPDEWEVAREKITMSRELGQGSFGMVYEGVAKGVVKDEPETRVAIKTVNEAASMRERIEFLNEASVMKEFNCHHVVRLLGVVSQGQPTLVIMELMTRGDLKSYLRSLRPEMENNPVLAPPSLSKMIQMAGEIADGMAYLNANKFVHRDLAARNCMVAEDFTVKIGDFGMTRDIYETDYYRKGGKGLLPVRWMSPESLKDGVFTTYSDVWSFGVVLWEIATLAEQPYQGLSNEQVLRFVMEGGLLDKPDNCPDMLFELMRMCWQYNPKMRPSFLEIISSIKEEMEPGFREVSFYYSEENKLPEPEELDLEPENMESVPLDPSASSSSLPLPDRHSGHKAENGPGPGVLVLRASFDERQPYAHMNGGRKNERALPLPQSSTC

[9] = target: Tyrosine-protein kinase Lck (Homo sapiens) (UniProt P06239); experiment: Lck(h) activated Eurofins kinase panel; details: Compound concentration 1.0 uM
[10] = target: Proto-oncogene tyrosine-protein kinase receptor Ret (Homo sapiens) (UniProt P07949); experiment: Ret(h) Eurofins kinase panel; details: Compound concentration 1.0 uM
[11] = tested on: IMR-32; experiment: IMR-32 cell line Proliferation assay; assay type: functional, Homo sapiens; details: time 6 day
[12] = tested on: NCI-H460; experiment: NCI- H460 cell line Proliferation assay; assay type: functional, Homo sapiens; details: time 3 day
[13] = target: Ribosomal protein S6 kinase alpha-5 (Homo sapiens, UniProt O75582)
Chain of Ribosomal protein S6 kinase alpha-5 (O75582 whole entry): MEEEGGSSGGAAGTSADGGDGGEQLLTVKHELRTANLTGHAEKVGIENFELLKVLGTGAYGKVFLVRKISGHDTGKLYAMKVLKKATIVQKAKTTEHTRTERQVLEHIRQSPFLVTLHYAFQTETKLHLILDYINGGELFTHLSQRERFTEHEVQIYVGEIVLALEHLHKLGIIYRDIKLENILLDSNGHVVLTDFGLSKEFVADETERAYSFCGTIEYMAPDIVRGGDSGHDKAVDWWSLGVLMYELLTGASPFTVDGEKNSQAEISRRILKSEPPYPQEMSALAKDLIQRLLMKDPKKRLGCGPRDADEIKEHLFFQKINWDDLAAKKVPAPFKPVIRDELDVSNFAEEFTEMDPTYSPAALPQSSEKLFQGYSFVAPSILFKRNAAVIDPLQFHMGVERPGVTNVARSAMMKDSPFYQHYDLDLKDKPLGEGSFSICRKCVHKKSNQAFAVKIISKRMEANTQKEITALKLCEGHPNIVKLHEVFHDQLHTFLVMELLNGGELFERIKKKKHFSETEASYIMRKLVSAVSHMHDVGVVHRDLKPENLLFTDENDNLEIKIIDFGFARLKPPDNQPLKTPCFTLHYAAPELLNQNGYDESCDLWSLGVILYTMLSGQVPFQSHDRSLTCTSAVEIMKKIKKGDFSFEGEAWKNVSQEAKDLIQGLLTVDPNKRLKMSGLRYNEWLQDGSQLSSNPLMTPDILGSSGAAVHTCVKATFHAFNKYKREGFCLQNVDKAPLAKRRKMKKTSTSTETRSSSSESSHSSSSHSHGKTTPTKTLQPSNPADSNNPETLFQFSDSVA

[14] = target: Hepatocyte growth factor receptor (Homo sapiens) (UniProt P08581); details: Compound concentration 1.0 uM
[15] = target: Serine/threonine-protein kinase 24 (Homo sapiens, UniProt Q9Y6E0); details: Compound concentration 1.0 uM
Chain of Serine/threonine-protein kinase 24 (Q9Y6E0 whole entry, looked up): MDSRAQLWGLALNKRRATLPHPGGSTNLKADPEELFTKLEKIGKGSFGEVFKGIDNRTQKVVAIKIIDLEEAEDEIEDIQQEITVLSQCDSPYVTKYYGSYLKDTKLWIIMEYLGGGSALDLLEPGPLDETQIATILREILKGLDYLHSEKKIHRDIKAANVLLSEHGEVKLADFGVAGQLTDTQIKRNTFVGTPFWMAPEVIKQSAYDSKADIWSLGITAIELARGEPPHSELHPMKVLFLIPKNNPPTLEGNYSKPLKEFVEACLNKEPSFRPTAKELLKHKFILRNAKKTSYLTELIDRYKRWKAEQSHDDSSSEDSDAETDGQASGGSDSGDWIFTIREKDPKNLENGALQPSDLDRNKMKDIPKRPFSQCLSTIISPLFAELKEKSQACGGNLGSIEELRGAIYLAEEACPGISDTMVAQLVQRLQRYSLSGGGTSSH

How did the % residual kinase activity [1] turn out when CCc1ccccc1C(=O)Nc1n[nH]c2c(C)c(F)c(C3C(C#N)=C(C)N(C)C(C)=C3C#N)cc12 [BAY-3827] was run?
The % residual kinase activity was 109%.

And the % residual kinase activity [2]?
The % residual kinase activity was 111%.

And the % residual kinase activity [3]?
The % residual kinase activity was 96%.

And the % residual kinase activity [4]?
The % residual kinase activity was 99%.

What about the % residual kinase activity [5] of the same compound?
The % residual kinase activity was 100%.

And the % residual kinase activity [6]?
The % residual kinase activity was 73%.

And the % residual kinase activity [7]?
Its % residual kinase activity is 99%.

And the % residual kinase activity [8]?
Its % residual kinase activity is 121%.

And the % residual kinase activity [9]?
The % residual kinase activity was 108%.

And the % residual kinase activity [10]?
The % residual kinase activity was 23%.

And the “Cell Proliferation IC50” value [11]?
Its value is greater than 11.5 µM.

And the “Cell Proliferation IC50” value [12]?
The value was greater than 33 µM.

And the IC50 [13]?
Its IC50 is 43 nM.

What about the % residual kinase activity [14] of the same compound?
Its % residual kinase activity is 1%.

And the % residual kinase activity [15]?
The % residual kinase activity was 17%.
